Like-named read-outs stand apart in the source and are kept apart here.
Experiments:
[1] = test system: IL-17F; assay: Rat model with increased IL-17 induced by imiquimod, intragastric administration; format: in vivo, SD rats; details: for skin lesions in rats: after treatment by intragastric administration
Protocol: Experimental animal: 8 to 10-week old SD rats, half male and half female.
• (1) negative control group (applying Vaseline, administering solvent intragastrically), • (2) model control group [applying imiquimod (IMQ)], • (3) administration group (applying IMQ, administering the compounds of the present invention intragastrically).
(§1) Administration dosage and method: 20 mg/kg, BID, intragastric administration.
Model establishment: SD rat was subjected to application of 40 mg of imiquimod ointment on its back skin once a day to construct the rat model. […]
By using the same scheme as biological test example 8, the efficacy of the compounds of the present invention was evaluated, and the following test results were obtained: […]

[2] = test system: psoriasis-like mouse model induced by imiquimod; assay: Efficacy test in psoriasis-like mouse model induced by imiquimod (PASI score); format: in vivo, Balb/c mice
Protocol: Experimental animal: Balb/c mice.
• (1) negative control group (applying Vaseline, administering solvent intragastrically), • (2) model control group [applying imiquimod (IMQ)], • (3) administration group (applying IMQ, administering Compound 7, Compound 8, Compound 9, Compound 10, and Compound No. 146 intragastrically); • wherein, “Compound No. 146” refers to the compound in Example 146 of reference WO2014074661, which was prepared according to the method described therein.
as §1
Experiment process: On Day 0, the animals were subjected to hair shaving on the test area of the back, and then they were grouped. From Day 1 to Day 7, one hour after the first administration in every morning, 40 mg of 5% imiquimod cream was applied once to the test area on the back, after that, a second administration was conducted on the same day. The skin lesion symptoms of psoriasis and efficacy were evaluated through Psoriasis Area and Severity Index (PASI) score (erythema, scale, thickening degree). The higher the score, the more severe the symptoms are.
PASI score results on day 7 are listed in the table below, wherein, • “+” represents a score of ≥6; • “++” represents a score of greater than 5 and less than 6; • “+++” represents a score of greater than 4 and less than or equal to 5; • “++++” represents a score of less than or equal to 4.
By using the same scheme as test example 1, pharmaceutical efficacy in psoriasis-like mouse model induced by imiquimod was studied.
By using the same scheme as test example 1, pharmaceutical efficacy in psoriasis-like mouse model induced by imiquimod was studied. PASI score results on Day 7 are listed in the table below, wherein, • “+” represents a score of ≥6; • “++” represents a score of greater than 5 and less than 6; • “+++” represents a score of greater than 4 and less than or equal to 5; • “++++” represents a score of less than or equal to 4.

[3] = target: TYK2-JH2 (Homo sapiens, UniProt P29597); assay: Enzymology experiment in vitro: TYK2-JH2 binding (Tb antibody/Tracer fluorescence ratio); details: for IC50: read-out: TYK2-JH2 binding inhibitory activity (IC50 value)
TYK2-JH2, sequence (P29597 589-875 limits assumed): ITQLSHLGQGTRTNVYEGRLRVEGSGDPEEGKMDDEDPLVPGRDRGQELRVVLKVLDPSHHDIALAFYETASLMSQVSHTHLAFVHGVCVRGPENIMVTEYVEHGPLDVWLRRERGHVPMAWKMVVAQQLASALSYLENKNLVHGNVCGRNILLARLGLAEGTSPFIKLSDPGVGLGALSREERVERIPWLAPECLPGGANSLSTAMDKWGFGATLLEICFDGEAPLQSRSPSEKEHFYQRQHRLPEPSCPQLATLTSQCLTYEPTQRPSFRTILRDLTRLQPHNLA

[4] = test system: pSTAT5 expression in CD3+ cells; assay: Inhibition of pSTAT5 expression in CD3+ cells of IFN-alpha stimulated human PBMC by FACS; format: cell-based; details: read-out: Inhibitory activity on p-STAT5 expression (IC50 value)
Protocol: Compound dilution and preparation: The test compound was prepared into a 10 mM solution using DMSO, and diluted in DMSO to obtain a solution with a gradient of different concentrations which was 500 times of the final concentration. 5 μL of the diluted compound was transferred into 120 μL of PBS solution containing 0.1% BSA. Positive and negative control groups were set up with 0.2% DMSO ultimately contained in each group.
• 1) Human PBMC cells were added into a 96-well cell culture plate, with 0.5 million cells and a volume of 67.5 μL per well. • 2) 3.5 μL of the diluted compound was added and mixed evenly. • 3) The incubation was carried out in a 37° C. incubator for 60 minutes. • 4) IFN-alpha was diluted to 600 ng/ml in DPBS containing 0.1% BSA. After the above 60-minute incubation, 5 μL of PE-anti-hCD3 antibody was added into each well, then 4 μL of the diluted IFN-alpha was also added into each well. • 5) The incubation was carried out in a 37° C. incubator for 30 minutes. • 6) All cells were transferred into a 96-deep-well plate and added with 1 mL of Lyse/fix buffer preheated at 37° C. • 7) The incubation was carried out in dark at 37° C. for 10 minutes. • 8) The plate was centrifuged at 600 g for 5 minutes with the supernatant abandoned, then washed twice with 1 mL of PBS and centrifuged. • 9) 1 mL of Perm buffer III was added into the cell precipitation. • 10) The incubation was carried out in dark at 4° C. for 30 minutes. • 11) The plate was centrifuged at 600 g for 5 minutes with the supernatant abandoned, then washed twice with 1 mL of PBS and centrifuged. • 12) APC anti-human pSTAT5 antibody was diluted 200 times in Staining buffer, then added into the cell wells with 100 μL per well, and mixed evenly. • 13) The incubation was carried out at room temperature for 40 minutes. • 14) The plate was washed twice with 1 mL of Staining buffer per well, and centrifuged at 600 g for 5 minutes. • 15) After the supernatant was abandoned, the cell precipitation was resuspended in 300 μL of Staining buffer. • 16) The sample was loaded and analyzed in a Beckman CytoFlex flow cytometer.

[5] = Pharmacokinetic study in vivo; details: rat, plasma; male SD rats; 1 mg/kg IV, 10 mg/kg PO (intragastric), single administration; read-out: Absolute bioavailability(F %)
Protocol: Experimental animal: 8 to 10 week-old male SD rats, fasted 12 hours before administration. Intragastric administration: mixed solution (ethanol+TPGS+PEG300=5:5:90) was used as the administration solvent. Injection administration: mixed solution (PEG400+ddH20=80:20) was used as the administration solvent. Administration capacity: 5 ml/kg. Animal grouping: intravenous IV group and intragastric PO group, with 3 male SD rats in each group. Administration route and dosage: 1 mg/kg for intravenous IV group; 10 mg/kg for intragastric PO group. Administration frequency: single administration. • IV blood collection points: 5 minutes, 15 minutes, 30 minutes, 1 hour, 2 hours, 4 hours, 6 hours, 8 hours, and 24 hours after administration; • PO blood collection points: 15 minutes, 30 minutes, 1 hour, 2 hours, 4 hours, 6 hours, 8 hours, and 24 hours after administration. The whole blood of rat was centrifuged at 10000 rpm for 5 minutes to separate plasma, which was stored at 4° C. 0.1 ml of the plasma was taken, added with 0.2 ml of acetonitrile, vortexed for 1 minute, and centrifuged at 10000 rpm for 5 minutes to take the supernatant, which was sent for analysis of drug content after 0.22 μm filtration.

[6] = Test Example 9, same scheme as test example 8
[7] = Test Example 6, same scheme as test example 1, day 7
[8] = human PBMC, CD3+ cells, IFN-alpha stimulation, FACS
[9] = Test Example 8, SD rats, imiquimod, 20 mg/kg BID intragastric, day 6
[10] = Test Example 1, Balb/c mice, imiquimod, 20 mg/kg BID intragastric, day 7, higher score = more severe

Structure (SMILES)	PASI score [2, 7]	IC50 [3] [nM]	other results
[2H]C([2H])([2H])NC(=O)c1nnc(NC(=N)C2CC2)cc1Nc1cccc(-c2ncn(C)n2)c1OC [Compound 1-1-1]	+ (a score of ≥6)	–	Content level of IL-17F in skin [1, 6]: D (an IL-17F content ranging from 300 pg/mL to 400 pg/mL)
[2H]C([2H])([2H])NC(=O)c1nnc(NC(=O)C2CC2)cc1Nc1cccc(-c2ncn(COCC[Si](C)(C)C)n2)c1OC [Compound 1-3]	++ (a score of greater than 5 and less than 6)	–	–
[2H]C([2H])([2H])NC(=O)c1nnc(NC(=O)C2CC2)cc1Nc1cccc(-c2ncn(CCNC(C)=S)n2)c1OC [Compound 1-4]	++ (a score of greater than 5 and less than 6)	–	–
[2H]C([2H])([2H])NC(=O)c1nnc(NC(=O)C2CC2)cc1Nc1cccc(-n2cccn2)c1OC [Compound 1-5]	++ (a score of greater than 5 and less than 6)	–	–
[2H]C([2H])([2H])NC(=O)c1nnc(NC(=O)C2CC2)cc1Nc1cccc(-n2ccnn2)c1OC [Compound 1-6]	++ (a score of greater than 5 and less than 6)	–	–
[2H]C([2H])([2H])NC(=O)c1nnc(NC(=O)C2CC2)cc1Nc1cccc(-c2ncn(C3(C(=O)OC)CC3)n2)c1OC [Compound 1-7]	++ (a score of greater than 5 and less than 6)	–	–
[2H]C([2H])([2H])NC(=O)c1nnc(NS(=O)(=O)C2CC2)cc1Nc1cccc(-c2ncn(C)n2)c1OC [Compound 1-8]	+ (a score of ≥6)	–	–
[2H]C([2H])([2H])NC(=O)c1nnc(NC(=O)C=C)cc1Nc1cccc(-c2ncn(C)n2)c1OC [Compound 1-9]	+ (a score of ≥6)	–	–
[2H]C([2H])([2H])NC(=O)c1nnc(NC(=S)C2CC2)cc1Nc1nccc(-c2ncn(C)n2)c1OC [Compound 2-1A-1]	++++ (a score of less than or equal to 4)	< 0.1	Content level of IL-17F in skin [1, 6]: A (an IL-17F content less than 30 pg/mL); skin lesions in rats [1]: significantly reduced; IC50 [4, 8]: < 1 nM
[2H]C([2H])([2H])NC(=O)c1nnc(NC(=O)C2CC2)cc1Nc1cccc(-c2nnn(CC#C)n2)c1OC [Compound 2-1B-1]	++ (a score of greater than 5 and less than 6)	0.1 to 0.5	IC50 [4, 8]: 5 to 10 nM
[2H]C([2H])([2H])NC(=O)c1nnc(NC(=O)C2CC2)nc1Nc1cccc(-c2ncn(CC#C)n2)c1OC [Compound 2-1B-2]	++ (a score of greater than 5 and less than 6)	0.5 to 1	IC50 [4, 8]: 5 to 10 nM
[2H]C([2H])([2H])NC(=O)c1nnc(NC(=O)C2CC2)cc1Nc1cccc(-c2ccn(CC#C)n2)c1OC [Compound 2-1B-7]	++ (a score of greater than 5 and less than 6)	0.1 to 0.5	IC50 [4, 8]: 5 to 10 nM
[2H]C([2H])([2H])NC(=O)c1nnc(NC(=O)C2CC2)cc1Nc1nccc(-c2ncn(CC#C)n2)c1OC [Compound 7]	++++ (a score of less than or equal to 4)	< 0.1	Content level of IL-17F in skin [1, 9]: A (an IL-17F content less than 30 pg/mL); skin lesions in rats [1]: significantly reduced; PASI score [2, 10]: ++++ (a score of less than or equal to 4); IC50 ([4]; Homo sapiens, PBMC): < 1 nM
[2H]C([2H])([2H])NC(=O)c1nnc(NC(=O)C2CC2)cc1Nc1nccc(-c2ncn(C([2H])([2H])C#C)n2)c1OC [Compound 8]	++++ (a score of less than or equal to 4)	< 0.1	PASI score [2, 10]: ++++ (a score of less than or equal to 4); IC50 ([4]; Homo sapiens, PBMC): < 1 nM
[2H]C#CC([2H])([2H])n1cnc(-c2ccnc(Nc3cc(NC(=O)C4CC4)nnc3C(=O)NC([2H])([2H])[2H])c2OC)n1 [Compound 9]	++++ (a score of less than or equal to 4)	< 0.1	PASI score [2, 10]: ++++ (a score of less than or equal to 4); IC50 ([4]; Homo sapiens, PBMC): < 1 nM
[2H]C([2H])([2H])NC(=O)c1nnc(NC(=O)C2CC2([2H])[2H])cc1Nc1nccc(-c2ncn(CC#C)n2)c1OC (centres unmarked) [Compound 10]	–	–	PASI score [2, 10]: ++++ (a score of less than or equal to 4); effect on the activity of TYK2-JH2 (in words) [3]: have inhibitory effects on the activity of TYK2-JH2; IC50 ([4]; Homo sapiens, PBMC): < 1 nM
[2H]C([2H])([2H])NC(=O)c1nnc(NC(=O)C2([2H])CC2)cc1Nc1nccc(-c2ncn(CC#C)n2)c1OC [Compound 11]	++++ (a score of less than or equal to 4)	< 0.1	Content level of IL-17F in skin [1, 9]: A (an IL-17F content less than 30 pg/mL); skin lesions in rats [1]: significantly reduced; bioavailability [5]: 97.8%; PASI score ([2]; Test Example 2, same scheme as test example 1, day 7): ++++ (a score of less than or equal to 4); IC50 ([4]; Homo sapiens, PBMC): < 1 nM
